According to patent US20230085307A1, “PYRIDAZINONE COMPOUND AND HERBICIDE” (NISSAN CHEMICAL CORPORATION, priority 2019, published 2023):

Tests used:
southern crabgrass = assay: Test Example 5: herbicidal effect by foliage application, plastic box (Table 20, symbol F); type: in vivo, southern crabgrass (Digitaria ciliaris); conditions: foliage application; for F: southern crabgrass, herbicidal effect grade: 320 g/ha, three weeks after application
Summary of the method: (§1)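 Foliar spray test: emulsion formulation diluted in water to a set application rate, sprayed onto 14-day-old plants raised in diluvial soil at 25° C to 30° C under glass. Both herbicidal effect and crop effect rated visually three weeks later.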

velvetleaf = assay: Test Example 5: herbicidal effect by foliage application, plastic box (Table 20, symbol M); type: in vivo, velvetleaf (Abutilon theophrasti); conditions: foliage application; for M: velvetleaf, herbicidal effect grade: 320 g/ha, three weeks after application
Summary of the method: as §1

rice flat sedge = assay: Test Example 3: herbicidal effect by foliage application, Wagner pot (Table 18, symbol E); type: in vivo, rice flat sedge (Cyperus iria); conditions: amount of applied herbicide 320 g/ha
Summary of the method: (§2)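 Plants were sown in alluvial soil held under 0.1–0.5 cm standing water and grown 14 days in a greenhouse at 25–30 °C. An emulsifiable formulation, water-diluted to the set dose, was then sprayed onto the foliage, and effects were scored three weeks later using previously defined criteria.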

wild oat = assay: Test Example 5: herbicidal effect by foliage application, plastic box (Table 20, symbol I); type: in vivo, wild oat (Avena fatua); conditions: foliage application; for I: wild oat, herbicidal effect grade: 320 g/ha, three weeks after application
Summary of the method: as §1

persian speedwell = assay: Test Example 5: herbicidal effect by foliage application, plastic box (Table 20, symbol R); type: in vivo, Persian speedwell (Veronica persica); conditions: foliage application; for R: persian speedwell, herbicidal effect grade: 320 g/ha, three weeks after application
Summary of the method: as §1

Italian ryegrass = assay: Test Example 5: herbicidal effect by foliage application, plastic box (Table 20, symbol K); type: in vivo, Italian ryegrass (Lolium multiflorum); conditions: foliage application; for K: Italian ryegrass, herbicidal effect grade: 320 g/ha, three weeks after application
Summary of the method: as §1

barnyard grass [1] = assay: Test Example 5: herbicidal effect by foliage application, plastic box (Table 20, symbol H); type: in vivo, barnyard grass (Echinochloa crus-galli); conditions: foliage application; for H: barnyard grass, herbicidal effect grade: 320 g/ha, three weeks after application
Summary of the method: as §1

Chinese sprangletop = assay: Test Example 3: herbicidal effect by foliage application, Wagner pot (Table 18, symbol D); type: in vivo, chinese sprangletop (Leptochloa chinensis); conditions: amount of applied herbicide 320 g/ha
Summary of the method: as §2

barnyard grass [2] = assay: Test Example 3: herbicidal effect by foliage application, Wagner pot (Table 18, symbol H); type: in vivo, barnyard grass (Echinochloa crus-galli); conditions: amount of applied herbicide 320 g/ha
Summary of the method: as §2

redroot pigweed = assay: Test Example 5: herbicidal effect by foliage application, plastic box (Table 20, symbol N); type: in vivo, redroot pigweed (Amaranthus retroflexus); conditions: foliage application; for N: redroot pigweed, herbicidal effect grade: 320 g/ha, three weeks after application
Summary of the method: as §1

blackgrass = assay: Test Example 5: herbicidal effect by foliage application, plastic box (Table 20, symbol J); type: in vivo, blackgrass (Alopecurus myosuroides); conditions: foliage application; for J: blackgrass, herbicidal effect grade: 320 g/ha, three weeks after application
Summary of the method: as §1

lambsquarters = assay: Test Example 5: herbicidal effect by foliage application, plastic box (Table 20, symbol O); type: in vivo, lambsquarters (Chenopodium album); conditions: foliage application; for O: lambsquarters, herbicidal effect grade: 320 g/ha, three weeks after application
Summary of the method: as §1

windgrass = assay: Test Example 5: herbicidal effect by foliage application, plastic box (Table 20, symbol L); type: in vivo, windgrass (Apera spica-venti); conditions: foliage application; for L: windgrass, herbicidal effect grade: 320 g/ha, three weeks after application
Summary of the method: as §1

chickweed = assay: Test Example 5: herbicidal effect by foliage application, plastic box (Table 20, symbol P); type: in vivo, common chickweed (Stellaria media); conditions: foliage application; for P: chickweed, herbicidal effect grade: 320 g/ha, three weeks after application
Summary of the method: as §1

green foxtail = assay: Test Example 5: herbicidal effect by foliage application, plastic box (Table 20, symbol G); type: in vivo, green foxtail (Setaria viridis); conditions: foliage application; for G: green foxtail, herbicidal effect grade: 320 g/ha, three weeks after application
Summary of the method: as §1

[3] = AAH 320 g/ha, evaluated three weeks after application

| SMILES | herbicidal effect on E: rice flat sedge (rice flat sedge) | herbicidal effect on D: Chinese sprangletop (Chinese sprangletop) | herbicidal effect on H: barnyard grass (barnyard grass [2]) | F: southern crabgrass, herbicidal effect grade (southern crabgrass) | M: velvetleaf, herbicidal effect grade (velvetleaf) | I: wild oat, herbicidal effect grade (wild oat) | R: persian speedwell, herbicidal effect grade (persian speedwell) | K: Italian ryegrass, herbicidal effect grade (Italian ryegrass) | H: barnyard grass, herbicidal effect grade (barnyard grass [1]) | N: redroot pigweed, herbicidal effect grade (redroot pigweed) | J: blackgrass, herbicidal effect grade (blackgrass) | O: lambsquarters, herbicidal effect grade (lambsquarters) | L: windgrass, herbicidal effect grade (windgrass) | P: chickweed, herbicidal effect grade (chickweed) | G: green foxtail, herbicidal effect grade (green foxtail) | also measured |
| --- | --- | --- | --- | --- | --- | --- | --- | --- | --- | --- | --- | --- | --- | --- | --- | --- |
| Cc1nn(C)c(=O)c(-c2c(-c3ccc(OC(F)F)cc3)sc3ccc(F)cc23)c1OC(=O)SC(C)(C)C [2-296] | 3 (Herbicidal rate of 40% or more and less than 70%) | 2 (Herbicidal rate of 20% or more and less than 40%) | 5 (Herbicidal rate of 90% or more (almost completely withered)) | – | – | – | – | – | – | – | – | – | – | – | – | F: southern crabgrass, herbicidal effect (criteria 0-5) (southern crabgrass; [3]): 0 (Herbicidal rate of 5% or less (almost no effect)); M: velvetleaf, herbicidal effect (criteria 0-5) (velvetleaf; [3]): 5 (Herbicidal rate of 90% or more (almost completely withered)); I: wild oat, herbicidal effect (criteria 0-5) (wild oat; [3]): 0 (Herbicidal rate of 5% or less (almost no effect)); R: persian speedwell, herbicidal effect (criteria 0-5) (persian speedwell; [3]): 5 (Herbicidal rate of 90% or more (almost completely withered)); K: Italian ryegrass, herbicidal effect (criteria 0-5) (Italian ryegrass; [3]): 1 (Herbicidal rate of 5% or more and less than 20%); H: barnyard grass, herbicidal effect (criteria 0-5) (barnyard grass [1]; [3]): 4 (Herbicidal rate of 70% or more and less than 90%); N: redroot pigweed, herbicidal effect (criteria 0-5) (redroot pigweed; [3]): 5 (Herbicidal rate of 90% or more (almost completely withered)); J: blackgrass, herbicidal effect (criteria 0-5) (blackgrass; [3]): 3 (Herbicidal rate of 40% or more and less than 70%); O: lambsquarters, herbicidal effect (criteria 0-5) (lambsquarters; [3]): 5 (Herbicidal rate of 90% or more (almost completely withered)); L: windgrass, herbicidal effect (criteria 0-5) (windgrass; [3]): 0 (Herbicidal rate of 5% or less (almost no effect)); P: chickweed, herbicidal effect (criteria 0-5) (chickweed; [3]): 5 (Herbicidal rate of 90% or more (almost completely withered)); G: green foxtail, herbicidal effect (criteria 0-5) (green foxtail; [3]): 5 (Herbicidal rate of 90% or more (almost completely withered)) |
| Cc1nn(Cc2ccccc2)c(=O)c(-c2c(-c3ccc(C(F)(F)F)cc3)sc3ccc(F)cc23)c1O [2-436] | 2 (Herbicidal rate of 20% or more and less than 40%) | 0 (Herbicidal rate of 5% or less (almost no effect)) | 3 (Herbicidal rate of 40% or more and less than 70%) | 0 (Herbicidal rate of 5% or less (almost no effect)) | 0 (Herbicidal rate of 5% or less (almost no effect)) | 0 (Herbicidal rate of 5% or less (almost no effect)) | 0 (Herbicidal rate of 5% or less (almost no effect)) | 0 (Herbicidal rate of 5% or less (almost no effect)) | 0 (Herbicidal rate of 5% or less (almost no effect)) | 3 (Herbicidal rate of 40% or more and less than 70%) | 0 (Herbicidal rate of 5% or less (almost no effect)) | 0 (Herbicidal rate of 5% or less (almost no effect)) | 0 (Herbicidal rate of 5% or less (almost no effect)) | 0 (Herbicidal rate of 5% or less (almost no effect)) | 0 (Herbicidal rate of 5% or less (almost no effect)) | – |
| COCCOCOc1c(C)nn(C)c(=O)c1-c1c(-c2ccc(Oc3ncc(C(F)(F)F)cc3Cl)cc2)sc2ccc(F)cc12 [2-468] | 2 (Herbicidal rate of 20% or more and less than 40%) | 2 (Herbicidal rate of 20% or more and less than 40%) | 3 (Herbicidal rate of 40% or more and less than 70%) | 0 (Herbicidal rate of 5% or less (almost no effect)) | 0 (Herbicidal rate of 5% or less (almost no effect)) | 0 (Herbicidal rate of 5% or less (almost no effect)) | 3 (Herbicidal rate of 40% or more and less than 70%) | 0 (Herbicidal rate of 5% or less (almost no effect)) | 5 (Herbicidal rate of 90% or more (almost completely withered)) | 1 (Herbicidal rate of 5% or more and less than 20%) | 0 (Herbicidal rate of 5% or less (almost no effect)) | 2 (Herbicidal rate of 20% or more and less than 40%) | 0 (Herbicidal rate of 5% or less (almost no effect)) | 0 (Herbicidal rate of 5% or less (almost no effect)) | 0 (Herbicidal rate of 5% or less (almost no effect)) | – |
